# In US20240124442A1, “TRICYCLIC-AMIDO-BICYCLIC PRMT5 INHIBITORS” (AMGEN INC., priority 2021, published 2024):
# Legend:
# HCT116 MTAP null cells = experiment: HCT116 MTAP null cell line proliferation / cell viability (CellTiter-Glo, 6 days); assay type: cell-based; conditions: 144 h; HCT116 MTAP null cells, 6 days treatment, CellTiter-Glo cell viability; read-out: HCT-116 MTAP null IC50
# Outline: (§1)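 Viability read by CellTiter-Glo luminescence after 6 days of compound treatment of HCT116 WT and MTAP-null cells (RPMI 1640, 10% FBS). Dose series were 1:3 steps from 1 or 10 μM (8–9 points), or 1:2 steps from 10 or 50 μM (22 points). IC50 from 4-parameter logistic or fixed-slope sigmoidal fit.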
# HCT116 WT cells = experiment: HCT116 WT (parent) cell line proliferation / cell viability (CellTiter-Glo, 6 days); assay type: cell-based; conditions: Homo sapiens, HCT-116, 144 h, 6 days treatment
# Outline: as §1
IC50 (HCT116 MTAP null cells) [nM],IC50 (HCT116 WT cells) [nM],SMILES
16,225,"Cc1nc2nc(N)c3cnn(C)c3c2cc1C(=O)N(C)[C@@H]1COCc2cc(C(F)(F)F)ccc21 [Example 300, 4-amino-N,1,7-trimethyl-N-((4S)-7-(trifluoromethyl)-3,4-dihydro-1H-2-benzopyran-4-yl)-1H-pyrazolo[4,3-c][1,8]-naphthyridine-8-carboxamide]"
28,1250,"Cc1nc2nc(N)c3cnn(C)c3c2cc1C(=O)N(C)[C@@H]1COCc2nc(C(F)(F)F)ccc21 [Example 301, 4-amino-N,1,7-trimethyl-N-((5S)-2-(trifluoromethyl)-5,8-dihydro-6H-pyrano[3,4-b]pyridin-5-yl)-1H-pyrazolo-[4,3-c][1,8]naphthyridine-8-carboxamide]"
6,161,"CN(C(=O)c1cc2c(cc1C(F)(F)F)nc(N)c1cnn(C)c12)[C@@H]1COCc2cc(C(F)(F)F)ccc21 [Example 302, 4-amino-N,1-dimethyl-7-(trifluoromethyl)-N-((4S)-7-(trifluoromethyl)-3,4-dihydro-1H-2-benzopyran-4-yl)-1H-pyrazolo[4,3-c]quinoline-8-carboxamide]"
14,902,"CN(C(=O)c1cc2c(cc1C(F)(F)F)nc(N)c1cnn(C)c12)[C@@H]1COCc2nc(C(F)(F)F)ccc21 [Example 303, 4-amino-N,1-dimethyl-7-(trifluoromethyl)-N-((5S)-2-(trifluoromethyl)-5,8-dihydro-6H-pyrano[3,4-b]pyridin-5-yl)-1H-pyrazolo[4,3-c]quinoline-8-carboxamide]"
198,9230,"CN(C(=O)c1cc2c(cn1)nc(N)c1c2cnn1C)[C@@H]1COCc2nc(C(F)(F)F)ccc21 [Example 304, 4-amino-N,3-dimethyl-N-((5S)-2-(trifluoromethyl)-5,8-dihydro-6H-pyrano[3,4-b]pyridin-5-yl)-3H-pyrazolo[3,4-c][1,7]naph-thyridine-8-carboxamide]"
20,429,"CCN(C(=O)c1cc2c(cc1F)nc(N)c1c2cnn1C)[C@@H]1COCc2nc(C(F)(F)F)ccc21 [Example 305, 4-amino-N-ethyl-7-fluoro-3-methyl-N-((5S)-2-(trifluoro-methyl)-5,8-dihydro-6H-pyrano[3,4-b]pyridin-5-yl)-3H-pyrazolo[3,4-c]quinoline-8-carboxamide]"
111,5060,"CN(C(=O)c1cc2c(cc1F)nc(N)c1c2cnn1C)C1COCc2cc(OC(F)(F)F)ccc21 [Example 306, 4-amino-7-fluoro-N,3-dimethyl-N-((4R)-7-(trifluoromethoxy)-3,4-dihydro-1H-2-benzopyran-4-yl)-3H-pyrazolo[3,4-c]quin-oline-8-carboxamide and 4-amino-7-fluoro-N,3-dimethyl-N-((4S)-7-(trifluoromethoxy)-3,4-dihydro-1H-2-benzopyran-4-yl)-3H-pyrazolo[3,4-c]quin-oline-8-carboxamide]"
19,471,"CCN(C(=O)c1cc2c(cc1C)nc(N)c1c2cnn1C)[C@@H]1COCc2nc(C(F)(F)F)ccc21 [Example 307, 4-amino-N-ethyl-3,7-dimethyl-N-((5S)-2-(trifluoromethyl)-5,8-dihydro-6H-pyrano[3,4-b]-pyridin-5-yl)-3H-pyrazolo-[3,4-c]quinoline-8-carboxamide]"
76,4130,"Cc1n[nH]c2c1c(N)nc1ccc(C(=O)N(C)[C@@H]3COCc4nc(C(F)(F)F)ccc43)cc12 [Example 308, 4-amino-N,3-dimethyl-N-((5S)-2-(trifluoromethyl)-5,8-dihydro-6H-pyrano[3,4-b]pyridin-5-yl)-1H-pyrazolo[4,3-c]quinoline-8-carboxamide]"
150,9590,"Cc1nn(C)c2c1c(N)nc1ccc(C(=O)N(C)[C@@H]3COCc4nc(C(F)(F)F)ccc43)cc12 [Example 309, 4-amino-N,1,3-trimethyl-N-((5S)-2-(trifluoromethyl)-5,8-dihydro-6H-pyrano[3,4-b]pyr-idin-5-yl)-1H-pyrazolo[4,3-c]-quinoline-8-carboxamide]"
110,7380,"Cc1n[nH]c2c1c(N)nc1cnc(C(=O)N(C)[C@@H]3COCc4nc(C(F)(F)F)ccc43)cc12 [Example 310, 4-amino-N,3-dimethyl-N-((5S)-2-(trifluoromethyl)-5,8-dihydro-6H-pyrano[3,4-b]pyridin-5-yl)-1H-pyrazolo-[4,3-c][1,7]naphthyridine-8-carboxamide]"
30,1020,"Cc1nn(C)c2c1c(N)nc1cnc(C(=O)N(C)[C@@H]3COCc4cc(C(F)(F)F)ccc43)cc12 [Example 311, 4-amino-N,1,3-trimethyl-N-((4S)-7-(trifluoromethyl)-3,4-dihydro-1H-2-benzopyran-4-yl)-1H-pyrazolo[4,3-c][1,7]-naphthyridine-8-carboxamide]"

# More lines, now with the values behind:
SMILES,IC50 (HCT116 MTAP null cells) [nM],IC50 (HCT116 WT cells) [nM]
"CN(C(=O)c1ccc2nc(N)c3cnn(C)c3c2c1)[C@@H]1COCc2nc(C(F)(F)F)ccc21 [Example 286, 4-amino-N,1-dimethyl-N-((5S)-2-(trifluoromethyl)-5,8-dihydro-6H-pyrano[3,4-b]pyridin-5-yl)-1H-pyrazolo[4,3-c]quinoline-8-carboxamide]",8,619
"CN(C(=O)c1cc2c(cn1)nc(N)c1cnn(C)c12)[C@@H]1COCc2cc(C(F)(F)F)ccc21 [Example 288, 4-amino-N,1-dimethyl-N-((4S)-7-(trifluoromethyl)-3,4-dihydro-1H-2-benzopyran-4-yl)-1H-pyrazolo[4,3-c][1,7]naphthyr-idine-8-carboxamide]",6,72
"CN(C(=O)c1cc2c(cn1)nc(N)c1cnn(C)c12)[C@@H]1COCc2nc(C(F)(F)F)ccc21 [Example 289, 4-amino-N,1-dimethyl-N-((5S)-2-(trifluoromethyl)-5,8-dihydro-6H-pyrano[3,4-b]pyridin-5-yl)-1H-pyrazolo[4,3-c][1,7]naph-thyridine-8-carboxamide]",16,357
"CN(C(=O)c1cc2c(cc1F)nc(N)c1cnn(C)c12)C1CCOc2nc(C(F)(F)F)ccc21 [Example 291, 4-amino-7-fluoro-N,1-dimethyl-N-((4R)-7-(trifluoromethyl)-3,4-dihydro-2H-pyrano[2,3-b]-pyridin-4-yl)-1H-pyrazolo[4,3-c]quinoline-8-carboxamide and 4-amino-7-fluoro-N,1-dimethyl-N-((4S)-7-(trifluoromethyl)-3,4-dihydro-2H-pyrano[2,3-b]pyr-idin-4-yl)-1H-pyrazolo[4,3-c]-quinoline-8-carboxamide]",169,10500
"CN(C(=O)c1cc2c(cc1F)nc(N)c1cnn(C)c12)[C@@H]1COCc2cc(C(F)(F)F)ncc21 [Example 292, 4-amino-7-fluoro-N,1-dimethyl-N-((4S)-7-(trifluoromethyl)-3,4-dihydro-1H-pyrano[4,3-c]pyr-idin-4-yl)-1H-pyrazolo[4,3-c]-quinoline-8-carboxamide]",7,224
"CN(C(=O)c1cc2c(cc1F)nc(N)c1cnn(C)c12)[C@H]1COCc2cc(C(F)(F)F)ncc21 [Example 293, 4-amino-7-fluoro-N,1-dimethyl-N-((4R)-7-(trifluoromethyl)-3,4-dihydro-1H-pyrano[4,3-c]-pyridin-4-yl)-1H-pyrazolo[4,3-c]quinoline-8-carboxamide]",305,7210
"CN(C(=O)c1cc2c(cc1Cl)nc(N)c1cnn(C)c12)[C@@H]1COCc2cc(C(F)(F)F)ccc21 [Example 294, 4-amino-7-chloro-N,1-dimethyl-N-((4S)-7-(trifluoromethyl)-3,4-dihydro-1H-2-benzopyran-4-yl)-1H-pyrazolo[4,3-c]quinoline-8-carboxamide]",3,12
"CN(C(=O)c1cc2c(cc1Cl)nc(N)c1cnn(C)c12)[C@@H]1COCc2nc(C(F)(F)F)ccc21 [Example 295, 4-amino-7-chloro-N,1-dimethyl-N-((5S)-2-(trifluoromethyl)-5,8-dihydro-6H-pyrano[3,4-b]-pyridin-5-yl)-1H-pyrazolo[4,3-c]quinoline-8-carboxamide]",2,34
"CN(C(=O)c1cc2c(nc1Cl)nc(N)c1cnn(C)c12)[C@@H]1COCc2cc(C(F)(F)F)ccc21 [Example 296, 4-amino-7-chloro-N,1-dimethyl-N-((4S)-7-(trifluoromethyl)-3,4-dihydro-1H-2-benzopyran-4-yl)-1H-pyrazolo[4,3-c][1,8]naph-thyridine-8-carboxamide]",8,159
"Cc1cc2nc(N)c3cnn(C)c3c2cc1C(=O)N(C)[C@@H]1COCc2nc(C(F)(F)F)ccc21 [Example 297, 4-amino-N,1,7-trimethyl-N-((5S)-2-(trifluoromethyl)-5,8-dihydro-6H-pyrano[3,4-b]pyr-idin-5-yl)-1H-pyrazolo[4,3-c]-quinoline-8-carboxamide]",6,162
"Cc1cc2nc(N)c3cnn(C)c3c2cc1C(=O)N(C)[C@@H]1COCc2nc(Br)ccc21 [Example 298, 4-amino-N-((5S)-2-bromo-5,8-dihydro-6H-pyrano[3,4-b]-pyridin-5-yl)-N,1,7-trimethyl-1H-pyrazolo[4,3-c]quinoline-8-carboxamide]",1,16
"Cc1nc2nc(N)c3cnn(C)c3c2cc1C(=O)N(C)[C@@H]1COCc2cc(C#N)ccc21 [Example 299, 4-amino-N-((4S)-7-cyano-3,4-dihydro-1H-2-benzopyran-4-yl)-N,1,7-trimethyl-1H-pyr-azolo[4,3-c][1,8]naphthyridine-8-carboxamide]",37,1520
